In PubChem BioAssay (NCI):
Values joined by “and” are separate entries in the source; they are usually repeats but may differ in a detail not shown here. Equal values may be shown once.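 Following 48 hours of exposure in 96-well plates, responses at five concentrations were used to interpolate endpoints linearly. At the GI50, growth is halved. TGI marks complete inhibition of growth.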

Columns and labels:
Experiment in all cases: growth of human tumour cells (NCI), 48 h
HOP-18 NSCLC = tested on: HOP-18 NSCLC
HL-60(TB) leukemia = tested on: HL-60(TB) leukemia
UACC-257 melanoma = tested on: UACC-257 melanoma
KM12 colon = tested on: KM12 colon
COLO 205 colon = tested on: COLO 205 colon
DMS 273 small cell lung = tested on: DMS 273 small cell lung
CAKI-1 renal = tested on: CAKI-1 renal
NCI-H23 lung = tested on: NCI-H23 lung
SF-295 CNS = tested on: SF-295 CNS
SK-MEL-28 melanoma = tested on: SK-MEL-28 melanoma

Structure (SMILES)	TGI (HOP-18 NSCLC) [µM]	TGI (HL-60(TB) leukemia)	TGI (UACC-257 melanoma) [µM]	TGI (KM12 colon)	TGI (COLO 205 colon)	TGI (DMS 273 small cell lung) [µM]	TGI (CAKI-1 renal)	TGI (NCI-H23 lung)	GI50 (SF-295 CNS)	TGI (SF-295 CNS)	GI50 (HL-60(TB) leukemia)	GI50 (UACC-257 melanoma) [µM]	GI50 (KM12 colon)	GI50 (COLO 205 colon)	GI50 (CAKI-1 renal)	GI50 (NCI-H23 lung)	GI50 (SK-MEL-28 melanoma)	TGI (SK-MEL-28 melanoma)
O=C(Nc1cccc(C(F)(F)F)c1)C(=O)C(C(=O)c1ccc(Cl)c(Cl)c1)C1OC(=O)c2ccccc21 (centres undefined)	> 100	> 100 µM	> 100	> 100 µM	> 100 µM	> 100	> 100 µM	> 100 µM										
Nc1nc(N)c2c(n1)NC(c1sc(Cl)nc1Cl)CC(c1ccccc1)=N2 (centres undefined)		8.22 µM	20.9	15.3 µM	15.4 µM		19.6 µM	23.3 µM	3.06 µM	13.3 µM	2.04 µM	6.77	3.79 µM	4.18 µM	3.28 µM	8.23 µM	4.26 µM	17.8 µM
COc1cc(/C=C/C(=O)c2cccc3ccccc23)cc(OC)c1OC	24.8	4.31 µM	19.7			23.9	23.2 µM	18.4 µM		22.2 µM								19.4 µM
CCOC(=O)/C(=C/CC/C(C)=C/CC/C(C)=C/CCc1ccoc1)CC(=O)N1CCCCC1		7.4 µM	7.41	19.2 µM	6.05 µM		38.3 µM	15.1 µM	1.55 µM	5.08 µM	2.99 µM	2.29	4.59 µM	2.32 µM	3.16 µM	3.12 µM	3.2 µM	12.4 µM
CN(C)c1ccc(/C=C/C(=O)c2ccc(Nc3nc(Nc4ccc(F)cc4)nc(Nc4ccc(F)cc4)n3)cc2)cc1		> 100 µM	90.9	75.2 µM	24.8 µM		63.3 µM	68.6 µM	15 µM	41.3 µM	12.2 µM	22.5	19 µM	5.16 µM	21.8 µM	19.6 µM	17 µM	75.5 µM
Cc1ccccc1NC(=O)CC1C(=O)Nc2ccccc2S1=O (centres undefined)		> 100 µM	> 100			> 100	> 100 µM	> 100 µM		> 100 µM								> 100 µM
NC(N)=NN=c1c(=O)c2ccccc2c1=O		48.6 µM	28.9	10.7 µM	32.4 µM		41.2 µM	3.94 µM	13.6 µM	27.7 µM	21.5 µM	15.1	3.34 µM	17.9 µM	18.9 µM	1.79 µM	2 µM	3.88 µM
C[C@@H](Nc1nc(N[C@H](C)C(F)(F)F)nc(-c2cccc(Cl)n2)n1)C(F)(F)F		> 100 µM	> 100	> 100 µM	> 100 µM		96.2 µM	> 100 µM	35.2 µM	> 100 µM	> 100 µM	51.4	> 100 µM	> 100 µM	24.9 µM	54 µM	72.5 µM	> 100 µM
COc1cc2c(Oc3ccc(NC(=O)C4(C(=O)Nc5ccc(F)cc5)CC4)cc3F)ccnc2cc1OCCCN1CCOCC1		2.02 µM and 2.34 µM	2.78	1.44 µM and 2.28 µM	0.641 µM and 0.934 µM		1.97 µM and > 4.86 µM	2.41 µM and > 10 µM	0.0519 µM and 0.0663 µM	1.26 µM and 1.49 µM	0.164 µM and 0.389 µM	1.19	0.0177 µM and 0.0189 µM	0.281 µM and 0.308 µM	0.547 µM and 0.768 µM	0.383 µM and 0.511 µM	1.12 µM and 1.25 µM	2.47 µM and 2.69 µM
CC1CC(C[N+](=O)[O-])CC2(C1)OCCO2 (centres undefined)	> 100	> 100 µM	> 100	> 100 µM	> 100 µM	> 100	> 100 µM											> 100 µM
Nc1nc(=O)n(C2CC(O)C(CO)O2)cc1F (centres undefined)		> 100 µM	> 100	> 100 µM	> 100 µM		> 100 µM	> 28.5 µM		> 100 µM	> 80.8 µM	> 100	> 66.3 µM		< 0.0119 µM	< 0.0332 µM		> 100 µM
O=C1/C(=C/c2cccnc2)SC(=S)N1Cc1ccco1		> 22 µM	> 31.5	14.5 µM	> 42.2 µM		80.6 µM	> 100 µM		> 100 µM								> 100 µM
CC1=C(C(=O)Nc2cccc(Cl)c2)C(c2ccccc2O)C(C(=O)Nc2cccc(Cl)c2)=C(C)N1		48.1 µM	36.6	31.2 µM	43.2 µM		43.3 µM	33.1 µM		40.6 µM								31.9 µM
N#CCc1c(F)c(F)c(F)c(F)c1F		> 100 µM	> 100	> 100 µM	> 100 µM		> 100 µM	> 100 µM		> 100 µM								> 100 µM
